Literature values as cited in paper PMC5944028, “Nonclinical and clinical pharmacological characterization of the potent and selective cathepsin K inhibitor MIV-711” (Journal of Translational Medicine, 2018).

What was measured:
urinary CTX-II = conditions: postmenopausal women with osteoporosis, 12 months; cited from earlier work
[1] = human, weekly dose of 50 mg, cited from earlier work

Compound | Reduction of urinary CTX-II (urinary CTX-II) [%] | mean plasma AUC0–24h [1] [µM·h] | IC50 ([1]; read-out: trough plasma IC50) [µM]
C[C@@H]1CS/C(=N\NC(=O)C(=O)[C@@H](NC(=O)C2CCCCCC2)C2CCOCC2)N1C [ONO-5334, reference compound] | 50 |  | 
CC(C)(F)C[C@H](N[C@@H](c1ccc(-c2ccc(S(C)(=O)=O)cc2)cc1)C(F)(F)F)C(=O)NC1(C#N)CC1 [odanacatib] |  | 6 to 7 | 0.05 to 0.06
